Where “and” joins values, the source holds several entries; their conditions need not be identical. Identical values can stand only once.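 In this assay, cells in 96-well plates receive the compound at five concentrations for 48 hours. Endpoints are linearly interpolated between the surrounding concentrations. At the GI50, growth is halved. At the TGI there is no net growth.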
Key:
Assay in all cases: growth of human tumour cells (NCI), 48 h
XF 498 CNS = test system: XF 498 CNS
SNB-78 CNS = test system: SNB-78 CNS
DMS 114 small cell lung = test system: DMS 114 small cell lung
LXFL 529 NSCLC = test system: LXFL 529 NSCLC
HOP-18 NSCLC = test system: HOP-18 NSCLC
MDA-N = test system: MDA-N
RXF-631 renal = test system: RXF-631 renal

Row | Structure (SMILES) | TGI (XF 498 CNS) [µM] | TGI (SNB-78 CNS) [µM] | TGI (DMS 114 small cell lung) | TGI (LXFL 529 NSCLC) [µM] | TGI (HOP-18 NSCLC) [µM] | TGI (MDA-N) [µM] | TGI (RXF-631 renal) [µM] | GI50 (XF 498 CNS) [µM]
1 | COC(=O)C1CSC(c2csc(CCN)n2)=N1 (stereo not given) | > 100 | > 100 | > 100 µM | > 100 | > 100 | – | – | –
2 | O=Cc1cccc2ccc3ccccc3c12 | – | – | – | – | – | 73.2 | – | –
3 | NC1N=Nc2ccccc21 (stereo not given) | > 100 | – | > 100 µM | > 100 | – | – | > 100 | –
4 | N#CC(C#N)=NNc1ccc2cn[nH]c2c1 | – | – | – | – | – | > 100 | – | –
5 | CC1=NN(C(=O)Cc2ccccc2)C(=O)/C1=C\c1ccc([N+](=O)[O-])cc1 | > 100 | > 100 | > 100 µM | > 100 | – | – | – | –
6 | O=C(NC(=Nc1ccccc1)SCSC(=Nc1ccccc1)NC(=O)c1ccco1)c1ccco1 | 66.1 | > 100 | > 100 µM | > 100 | – | – | > 100 | –
7 | Cc1cc(=O)oc2cc(OCCCOc3ccc4c(C)cc(=O)oc4c3)ccc12 | > 100 | – | > 100 µM | > 100 | – | – | > 100 | –
8 | O=C(Cc1ccccc1[N+](=O)[O-])C(CO)c1ccccc1[N+](=O)[O-] (stereo not given) | > 100 | > 100 | > 100 µM | > 100 | > 100 | – | – | –
9 | C/C(CCn1[nH]c(=O)ccc1=O)=N\NC(=O)C(N)=O | > 100 | > 100 | > 100 µM | > 100 | > 100 | – | – | –
10 | O=C(O)CN(c1ccccc1)S(=O)(=O)c1cccc([N+](=O)[O-])c1 | > 100 | – | – | > 100 | > 100 | – | – | –
11 | c1ccc2c(c1)SC(=C1Sc3ccccc3S1)S2 | > 100 | > 100 | > 100 µM | > 100 | > 100 | – | > 100 | –
12 | Fc1cc(F)c(F)c(S)c1F | – | – | – | – | – | > 100 | – | –
13 | CC(=O)c1ccccc1NC(=O)C(=O)C(C(=O)c1ccc2ccccc2c1)C1OC(=O)c2ccccc21 (stereo not given) | 18.1 | 84.8 | 43 µM | 26.3 | 38.7 | – | – | –
14 | COc1ccc(Nc2nc3cc(C(F)(F)F)ccc3nc2-c2ccccc2)cc1OC | 11.2 | 66.7 | 41.4 µM | > 100 | – | – | – | –
15 | COc1ccc2c(c1)CC[C@@H]1C2CC[C@]2(C)C(=O)N(CCN(C)C)C(=O)CC12 (stereo not given in full) | – | – | – | – | – | > 100 | – | –
16 | CC(C)OP(=S)(NC(=S)c1ccccc1)OC(C)C | > 100 | > 100 | > 100 µM | > 100 | – | – | – | –
17 | CC(C)NC(=O)OCc1c(COC(=O)NC(C)C)c(-c2ccc[n+](COC(=O)Cc3ccccc3)c2)n2c1CCC2 | – | – | – | – | – | > 100 | – | –
18 | COc1ccc2nc3c([N+](=O)[O-])ccc(NCCN(C)C)c3c(N)c2c1 | – | – | – | – | – | 3.19 | – | –
19 | COc1ccc2c(c1)[n+]([O-])c(-c1cccc(Cl)c1)c(N)[n+]2[O-] | > 100 | > 100 | 65.8 µM | – | > 100 | – | – | –
20 | O=C(O)CCCCn1ccc(=O)[nH]c1=O | – | – | – | – | – | > 100 | – | –
21 | CC1(C)NC(=O)N(CCCCCCN2C(=O)NC(C)(C)C2=O)C1=O | – | > 100 | > 100 µM | > 100 | > 100 | – | – | –
22 | CC1CCCC(C(=O)CC2CC(=O)NC(=O)C2)C1=O (stereo not given) | – | – | – | – | – | > 100 | – | –

Row | Structure (SMILES) | TGI (XF 498 CNS) [µM] | TGI (SNB-78 CNS) [µM] | TGI (DMS 114 small cell lung) | TGI (LXFL 529 NSCLC) [µM] | TGI (HOP-18 NSCLC) [µM] | TGI (MDA-N) [µM] | TGI (RXF-631 renal) [µM] | GI50 (XF 498 CNS) [µM]
23 | N#CCCN(CCC#N)c1ccc(/C=C(/NC(=O)c2cc([N+](=O)[O-])ccc2Cl)C(=O)NN)cc1 | – | > 100 | – | > 100 | > 100 | – | – | –
24 | Cc1cc(Cl)nc2ccc(Cc3ccc4nc(Cl)cc(C)c4c3)cc12 | – | – | – | – | – | > 100 | – | –
25 | [O-]/N=[N+](/[O-])C1CCCCC1=[N+]1CCOCC1 (stereo not given) | > 100 | > 100 | > 100 µM | > 100 | – | – | – | –
26 | C/C(=N\NC(=S)N1CCN(c2ccccn2)CC1)c1ccccn1 | – | 21.5 | 0.335 µM and 0.103 µM | 14.2 | – | 13.3 | – | 0.0236
27 | COc1cc(CC(C)=O)cc(OC)c1 | – | – | – | – | – | 76.9 | – | –
28 | COC(=O)Oc1nn(C(=O)OC)c(=O)c2ccccc12 | – | – | – | – | – | > 100 | – | –
29 | OCC1OC2c3ccccc3COC2C1OCc1ccccc1 (stereo not given) | > 100 | > 100 | > 100 µM | > 100 | > 100 | – | > 100 | –
30 | CC#C[C@]1(O)CCC2[C@@H]3CCC4=CC(=O)CCC4=C3[C@@H](c3ccc(N(C)C)cc3)C[C@@]21C (stereo not given in full) | – | – | – | – | – | 49.3 | – | –
31 | COC(=O)Cc1c([C@@]2(C)CCCC(C)(C)C2)ccc2c1C(=O)OC2 | – | 37.3 | 20.4 µM | 27.2 | 47.1 | – | 29.4 | –
32 | Nc1nc(NCCOCP(=O)(O)O)c([N+](=O)[O-])c(=O)[nH]1 | > 100 | > 100 | – | > 100 | > 100 | – | – | –
33 | CCC12CCCN(Cc3ccccc3)C1c1c(n(C)c3ccccc13)C(CO)C2 (stereo not given) | 79.7 | – | 84.5 µM | 87.4 | – | – | 142 | –
34 | CN1C(=O)CC2(C)c3cc(O)cc(Br)c3N(C)C12 (stereo not given) | > 100 | > 100 | > 100 µM | > 100 | > 100 | – | – | –
35 | COC(=O)[C@H](CC(C)C)NC(=O)[C@H](Cc1ccccc1)N1CC2C=CC1C2 (stereo not given in full) | > 100 | – | > 100 µM | > 100 | > 100 | – | – | –
36 | COc1cccc(C=O)c1C(=O)c1cc(O)ccc1O | > 100 | > 60.8 | > 48.2 µM | – | 76.5 | – | – | –
37 | Cc1nn(C(=O)c2ccccc2O)c2c1C(c1ccc(O)cc1O)SC(N)=N2 (stereo not given) | – | – | – | – | – | > 10 | – | –
38 | COc1cc2c(cc1OC)C(C#N)N(C(=O)c1ccccc1)C=C2OC(=O)c1ccccc1 (stereo not given) | 47.7 | 76.6 | 89.2 µM | 42.5 | 46.6 | – | – | –
39 | O=C(COc1ccccc1Cl)N1N=C(c2ccccc2)CC1(O)c1ccccc1 (stereo not given) | 35.5 | 43.2 | – | > 100 | – | – | – | –
40 | O=C1C=C(Nc2ccccc2C(=O)CC(=O)C(=O)Nc2ccc(Cl)cc2)c2ccccc2C1=O | 28.6 | 81 | 16.8 µM | 42.6 | 8.72 | – | > 80.8 | –
41 | Cc1cc(=O)[nH]c(CNC(=O)c2ccc3ccccc3c2)n1 | > 100 | – | > 100 µM | > 100 | > 100 | – | > 100 | –
42 | CC(C)(C)N/N=C(\C(=O)Nc1cccc(Cl)c1)C1C(=O)Nc2ccccc2S1=O (stereo not given) | > 100 | – | > 100 µM | > 100 | > 100 | – | > 100 | –
43 | Cn1c(-c2ccc(-c3cc(-c4cccs4)c(-c4cccs4)n3C)cc2)cc(-c2cccs2)c1-c1cccs1 | – | – | – | – | – | > 100 | – | –
44 | COC(=O)[C@H]1COC(=S)N1C(=O)[C@@H](C)[C@H](O)C(C)C | > 100 | > 100 | > 100 µM | > 100 | > 100 | – | > 100 | –
